Test results taken from ChEMBL document CHEMBL2074349, “Rifampicin enhances anti-cancer drug accumulation and activity in multidrug-resistant cells” (Biochem Pharmacol, 1995).

What was measured:
[1] = target: Multidrug resistance protein 1a (Rattus norvegicus) (UniProt Q6PSM0); test: TP_TRANSPORTER: increase in Vinblastine intracellular accumulation (Vinblastine: 0.0125 uM, Rifamycin B: 200 uM) in RHC1 cells; format: functional, cell-based
[2] = target: Multidrug resistance protein 1a (Rattus norvegicus) (UniProt Q6PSM0); test: TP_TRANSPORTER: increase in Vinblastine intracellular accumulation (Vinblastine: 0.0125 uM, Rifamycin SV: 200 uM) in RHC1 cells; format: functional, cell-based
[3] = target: ATP-dependent translocase ABCB1 (Homo sapiens, UniProt P08183); test: TP_TRANSPORTER: inhibition of Azidopine photoaffinity labelling (Rifampicin: 200 uM) in membranes from K562 R7 cells; format: functional, cell membranes, Membrane; settings: k562/r7, 200 µM
ATP-dependent translocase ABCB1, sequence (P08183 whole entry): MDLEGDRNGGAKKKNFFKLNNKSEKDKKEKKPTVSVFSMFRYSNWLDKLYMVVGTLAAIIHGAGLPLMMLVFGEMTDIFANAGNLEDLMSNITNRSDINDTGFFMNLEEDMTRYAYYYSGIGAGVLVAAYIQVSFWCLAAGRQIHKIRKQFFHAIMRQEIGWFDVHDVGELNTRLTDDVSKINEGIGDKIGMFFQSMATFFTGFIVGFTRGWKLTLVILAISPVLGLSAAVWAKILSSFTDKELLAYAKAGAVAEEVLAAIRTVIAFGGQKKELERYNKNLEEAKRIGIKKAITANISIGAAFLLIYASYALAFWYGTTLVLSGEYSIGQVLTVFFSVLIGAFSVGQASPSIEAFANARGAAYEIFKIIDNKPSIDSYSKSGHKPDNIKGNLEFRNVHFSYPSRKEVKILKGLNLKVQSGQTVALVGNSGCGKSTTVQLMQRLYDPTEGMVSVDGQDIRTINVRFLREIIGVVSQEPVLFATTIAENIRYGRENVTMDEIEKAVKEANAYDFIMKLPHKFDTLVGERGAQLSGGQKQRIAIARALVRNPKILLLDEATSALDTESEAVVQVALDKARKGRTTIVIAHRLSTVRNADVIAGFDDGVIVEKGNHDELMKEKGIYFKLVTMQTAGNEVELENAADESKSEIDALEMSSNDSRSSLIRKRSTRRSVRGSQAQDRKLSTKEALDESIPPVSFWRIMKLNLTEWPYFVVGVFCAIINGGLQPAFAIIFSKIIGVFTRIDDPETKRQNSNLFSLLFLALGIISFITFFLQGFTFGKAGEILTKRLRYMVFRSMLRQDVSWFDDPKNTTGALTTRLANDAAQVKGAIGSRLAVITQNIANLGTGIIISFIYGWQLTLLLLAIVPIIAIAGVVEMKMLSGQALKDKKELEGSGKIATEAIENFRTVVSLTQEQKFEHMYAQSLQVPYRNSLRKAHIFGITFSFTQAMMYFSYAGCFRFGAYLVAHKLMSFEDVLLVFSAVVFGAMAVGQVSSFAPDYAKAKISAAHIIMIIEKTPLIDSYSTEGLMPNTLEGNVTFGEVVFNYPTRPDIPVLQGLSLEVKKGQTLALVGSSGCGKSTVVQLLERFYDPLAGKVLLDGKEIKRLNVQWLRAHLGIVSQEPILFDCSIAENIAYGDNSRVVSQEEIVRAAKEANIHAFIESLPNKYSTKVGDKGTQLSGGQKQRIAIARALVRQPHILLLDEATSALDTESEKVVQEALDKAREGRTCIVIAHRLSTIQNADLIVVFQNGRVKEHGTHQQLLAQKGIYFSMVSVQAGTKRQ

[4] = target: Multidrug resistance protein 1a (Rattus norvegicus) (UniProt Q6PSM0); test: TP_TRANSPORTER: increase in Vinblastine intracellular accumulation (Vinblastine: 0.0125 uM, Rifampicin: 200 uM) in RHC1 cells; format: functional, cell-based

Multidrug resistance protein 1a (Rattus norvegicus), sequence (Q6PSM0 as listed by the source): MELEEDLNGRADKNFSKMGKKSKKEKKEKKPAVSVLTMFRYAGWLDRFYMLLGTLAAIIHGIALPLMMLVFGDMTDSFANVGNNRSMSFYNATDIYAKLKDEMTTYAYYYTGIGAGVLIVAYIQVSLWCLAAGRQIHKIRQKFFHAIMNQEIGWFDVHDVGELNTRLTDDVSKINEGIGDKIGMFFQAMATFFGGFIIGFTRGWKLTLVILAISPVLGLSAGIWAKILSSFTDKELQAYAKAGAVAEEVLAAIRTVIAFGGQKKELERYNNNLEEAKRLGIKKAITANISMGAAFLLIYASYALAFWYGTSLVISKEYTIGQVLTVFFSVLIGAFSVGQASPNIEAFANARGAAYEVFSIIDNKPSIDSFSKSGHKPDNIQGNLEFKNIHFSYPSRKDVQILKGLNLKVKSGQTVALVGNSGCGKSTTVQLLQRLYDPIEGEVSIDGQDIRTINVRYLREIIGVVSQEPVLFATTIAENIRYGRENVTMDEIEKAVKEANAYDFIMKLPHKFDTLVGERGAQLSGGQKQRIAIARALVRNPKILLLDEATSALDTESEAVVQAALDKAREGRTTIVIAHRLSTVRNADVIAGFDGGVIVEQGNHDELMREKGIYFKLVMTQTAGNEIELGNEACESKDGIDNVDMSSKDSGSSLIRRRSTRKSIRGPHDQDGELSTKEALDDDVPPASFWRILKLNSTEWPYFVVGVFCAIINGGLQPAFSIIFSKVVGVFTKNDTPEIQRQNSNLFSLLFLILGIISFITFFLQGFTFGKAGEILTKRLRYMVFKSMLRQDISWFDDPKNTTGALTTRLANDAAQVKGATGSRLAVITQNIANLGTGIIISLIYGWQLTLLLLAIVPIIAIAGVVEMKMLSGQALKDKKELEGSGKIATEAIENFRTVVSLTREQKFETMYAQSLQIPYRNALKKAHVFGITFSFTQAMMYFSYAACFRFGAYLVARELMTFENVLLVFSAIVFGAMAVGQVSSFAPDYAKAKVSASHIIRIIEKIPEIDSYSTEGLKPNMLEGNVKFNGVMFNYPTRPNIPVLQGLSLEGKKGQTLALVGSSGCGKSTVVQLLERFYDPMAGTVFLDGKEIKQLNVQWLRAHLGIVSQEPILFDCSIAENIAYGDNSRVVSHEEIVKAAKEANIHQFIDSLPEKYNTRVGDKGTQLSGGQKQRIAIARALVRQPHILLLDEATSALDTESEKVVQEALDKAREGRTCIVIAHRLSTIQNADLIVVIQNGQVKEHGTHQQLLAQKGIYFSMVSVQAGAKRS

Question: COC1/C=C/OC2(C)Oc3c(C)c(O)c4c(O)c(cc(OCC(=O)Nc5ccc(I)cc5)c4c3C2=O)NC(=O)/C(C)=C\C=C\C(C)C(O)C(C)C(O)C(C)C(OC(C)=O)C1C (centres undefined) was tested. Which Activity [1] did it give?
Answer: is not an inhibitor [-]

Question: Which Activity [2] does the source give for CO[C@H]1/C=C/O[C@@]2(C)Oc3c(C)c(O)c4c(O)c(cc(O)c4c3C2=O)NC(=O)/C(C)=C\C=C\[C@H](C)[C@H](O)[C@@H](C)[C@@H](O)[C@@H](C)[C@H](OC(C)=O)[C@@H]1C here?
Answer: inhibitor [+]

Question: Which Activity [3] does the source give for CO[C@H]1/C=C/O[C@@]2(C)Oc3c(C)c(O)c4c(O)c(c(/C=N/N5CCN(C)CC5)c(O)c4c3C2=O)NC(=O)/C(C)=C\C=C\[C@H](C)[C@H](O)[C@@H](C)[C@@H](O)[C@@H](C)[C@H](OC(C)=O)[C@@H]1C [RIFAMPIN] here?
Answer: inhibitor [+]

Question: What about the Activity [4] of the same compound?
Answer: inhibitor [+]
